Measurements reported in patent US10743540B2, “3-amino-1,2,4-triazine derivatives and their use for controlling undesired plant growth” (BAYER CROPSCIENCE AKTIENGESELLSCHAFT, priority 2016, dated 2020).

Tests used:
Format in all cases: in vivo
STEME: Stellaria media [1] = assay: Pre-emergence herbicidal effect; conditions: application rate 320 g/ha, scored visually after 3 weeks, 100% = plants have died, 0% = like control plants
From the text: (§1) 1. Pre-Emergence Herbicidal Effect and Crop Plant Compatibility Seeds of monocotyledonous and dicotyledonous weed plants and crop plants are laid out in sandy loam soil in wood-fiber pots and covered with soil. The compounds of the invention, formulated in the form of wettable powders (WP) or as emulsion concentrates (EC), are then applied to the surface of the covering soil as aqueous suspension or emulsion at a water application rate equating to 600 to 800 L/ha with addition of 0.2% wetting agent. After the treatment, the pots are placed in a greenhouse and kept under good growth conditions for the trial plants. The damage to the test plants is scored visually after a test period of 3 weeks by comparison with untreated controls (herbicidal activity in percent (%): 100% activity=the plants have died, 0% activity=like control plants). [table]

VERPE: Veronica persica [2] = assay: Pre-emergence herbicidal effect; conditions: application rate 320 g/ha, scored visually after 3 weeks, 100% = plants have died, 0% = like control plants
From the text: as §1

[3] = test system: ECHCG: Echinochloa crus-galli; assay: Pre-emergence herbicidal effect; conditions: application rate 320 g/ha, scored visually after 3 weeks, 100% = plants have died, 0% = like control plants
From the text: as §1

[4] = test system: MATIN: Matricaria inodora; assay: Pre-emergence herbicidal effect; conditions: application rate 320 g/ha, scored visually after 3 weeks, 100% = plants have died, 0% = like control plants
From the text: as §1

STEME: Stellaria media [5] = assay: Post-emergence herbicidal effect; conditions: application rate 320 g/ha, treated at one-leaf stage, assessed visually after about 3 weeks, 100% = plants have died
Method: (§2) [table] 2. Post-Emergence Herbicidal Effect and Crop Plant Compatibility Seeds of monocotyledonous and dicotyledonous weed and crop plants are laid out in sandy loam soil in wood-fiber pots, covered with soil and cultivated in a greenhouse under good growth conditions. 2 to 3 weeks after sowing, the test plants are treated at the one-leaf stage. The compounds of the invention, formulated in the form of wettable powders (WP) or as emulsion concentrates (EC), are then sprayed onto the green parts of the plants as aqueous suspension or emulsion at a water application rate equating to 600 to 800 L/ha with addition of 0.2% wetting agent. After the test plants have been left to stand in the greenhouse under optimal growth conditions for about 3 weeks, the action of the preparations is assessed visually in comparison to untreated controls (herbicidal action in percent (%): 100% activity=the plants have died, 0% activity=like control plants).

VERPE: Veronica persica [6] = assay: Post-emergence herbicidal effect; conditions: application rate 320 g/ha, treated at one-leaf stage, assessed visually after about 3 weeks, 100% = plants have died
Method: as §2

VIOTR: Viola tricolor = assay: Post-emergence herbicidal effect; conditions: application rate 320 g/ha, treated at one-leaf stage, assessed visually after about 3 weeks, 100% = plants have died
Method: as §2

[7] = test system: POLCO: Polygonum convolvulus; assay: Pre-emergence herbicidal effect; conditions: application rate 320 g/ha, scored visually after 3 weeks, 100% = plants have died, 0% = like control plants
From the text: as §1

[8] = test system: ALOMY: Alopecurus myosuroides; assay: Pre-emergence herbicidal effect; conditions: application rate 320 g/ha, scored visually after 3 weeks, 100% = plants have died, 0% = like control plants
From the text: as §1

SETVI: Setaria viridis = assay: Pre-emergence herbicidal effect; conditions: application rate 320 g/ha, scored visually after 3 weeks, 100% = plants have died, 0% = like control plants
From the text: as §1

Row | SMILES | Herbicidal activity with respect to [%] STEME (STEME: Stellaria media [1]) | Herbicidal activity with respect to [%] VERPE (VERPE: Veronica persica [2]) | Herbicidal activity with respect to [%] MATIN [4] | Herbicidal activity with respect to [%] VERPE (VERPE: Veronica persica [6]) | Herbicidal activity with respect to [%] VIOTR (VIOTR: Viola tricolor) | other results
1 | CC(C)(C)c1nnc(NC2CCOc3ccccc32)nc1N (racemic) [Example 1.8] | 80% | 100% | – | – | – | –
2 | Clc1nnc(NC2CCCc3ccccc32)nc1NC1CC1 (racemic) [Example 1.10] | 80% | – | – | – | – | –
3 | Clc1nnc(NC2CCOc3ccccc32)nc1NC1CC1 (racemic) [Example 1.14] | 90% | – | – | – | – | –
4 | CNC(=O)c1nnc(NC2CCc3ccccc32)nc1N (racemic) [Example 1.35] | – | 100% | – | – | – | –
5 | Nc1nc(NC2COc3ccccc32)nnc1C(F)(F)F (racemic) [Example 1.48] | 100% | 100% | 100% | 80% | – | Herbicidal activity with respect to [%] ECHCG [3]: 100%; Herbicidal activity with respect to [%] STEME (STEME: Stellaria media [5]): 100%
6 | N#Cc1nnc(NC2CCCc3cc(F)ccc32)nc1N (racemic) [Example 1.63] | 100% | – | – | – | – | –
7 | Nc1nc(NC2c3ccccc3CC2O)nnc1C(F)(F)F (racemic) [Example 1.84] | 100% | 100% | – | 80% | 90% | –
8 | Cc1ccc2c(c1)[C@H](Nc1nnc(Cl)c(NC3CC3)n1)[C@@H](C)C2 [Example 1.2] | 100% | 100% | 90% | – | – | –
9 | CC(C)(C)c1nnc(N[C@@H]2CCCc3ccccc32)nc1N [Example 1.5] | – | 100% | 90% | 80% | – | –
10 | Cc1ccc2c(c1)[C@H](Nc1nnc(C(C)(C)C)c(N)n1)[C@@H](C)C2 [Example 1.6] | – | 100% | 90% | 80% | 80% | –
11 | CC(C)(C)c1nnc(N[C@@H]2CCc3ccccc32)nc1N [Example 1.7] | – | 100% | 90% | 90% | – | –
12 | CC(=O)c1nnc(N[C@@H]2CCc3ccccc32)nc1N [Example 1.29, 1-[5-Amino-3-[(1R)-2,3-dihydro-1H-inden-1-ylamino]-1,2,4-triazin-6-yl]ethanone] | 90% | 90% | 100% | – | 80% | Herbicidal activity with respect to [%] POLCO [7]: 80%; Herbicidal activity with respect to [%] STEME (STEME: Stellaria media [5]): 90%
13 | CC(=O)c1nnc(N[C@@H]2CCCc3ccccc32)nc1N [Example 1.30] | 100% | 100% | 100% | 80% | – | Herbicidal activity with respect to [%] ECHCG [3]: 80%; Herbicidal activity with respect to [%] POLCO [7]: 100%; Herbicidal activity with respect to [%] STEME (STEME: Stellaria media [5]): 80%
14 | CCOC(=O)c1nnc(N[C@@H]2CCc3ccccc32)nc1N [Example 1.33] | 100% | 100% | 100% | 80% | – | Herbicidal activity with respect to [%] ECHCG [3]: 80%; Herbicidal activity with respect to [%] POLCO [7]: 100%
15 | CNC(=O)c1nnc(N[C@@H]2CCCc3ccccc32)nc1N [Example 1.34, 5-Amino-N-methyl-3-[(1R)-1,2,3,4-tetrahydronaphthalen-1-ylamino]-1,2,4-triazine-6-carboxamide] | – | – | – | 90% | – | –
16 | N#Cc1nnc(N[C@@H]2CCc3ccccc32)nc1N [Example 1.38] | 100% | 100% | – | – | 90% | Herbicidal activity with respect to [%] ECHCG [3]: 80%

Row | SMILES | Herbicidal activity with respect to [%] STEME (STEME: Stellaria media [1]) | Herbicidal activity with respect to [%] VERPE (VERPE: Veronica persica [2]) | Herbicidal activity with respect to [%] MATIN [4] | Herbicidal activity with respect to [%] VERPE (VERPE: Veronica persica [6]) | Herbicidal activity with respect to [%] VIOTR (VIOTR: Viola tricolor) | other results
17 | CCOC(=O)CCNC(=O)c1nnc(N[C@H]2c3cc(C)ccc3C[C@@H]2C)nc1N [Example 1.42] | 100% | 80% | – | – | – | –
18 | CCOC(=O)CNC(=O)c1nnc(N[C@H]2c3cc(C)ccc3C[C@@H]2C)nc1N [Example 1.43] | 100% | 100% | 100% | 80% | 80% | –
19 | CCCS(=O)(=O)NC(=O)c1nnc(N[C@H]2c3cc(C)ccc3C[C@@H]2C)nc1N [Example 1.53] | 100% | 100% | – | 80% | – | –
20 | Cc1ccc2c(c1)[C@H](Nc1nnc(C(=O)NS(=O)(=O)c3ccccc3)c(N)n1)[C@@H](C)C2 [Example 1.55] | 100% | 90% | – | 80% | 80% | –
21 | Cc1ccc2c(c1)[C@H](Nc1nnc(C(=O)NS(=O)(=O)c3ccc([N+](=O)[O-])cc3)c(N)n1)[C@@H](C)C2 [Example 1.56] | 100% | 100% | – | – | – | –
22 | Cc1ccc2c(c1)[C@H](Nc1nnc(C(=O)NS(=O)(=O)C(F)(F)F)c(N)n1)[C@@H](C)C2 [Example 1.57] | 100% | 100% | – | 80% | – | –
23 | Cc1ccc2c(c1)[C@@H](Nc1nnc(C#N)c(N)n1)CC2 [Example 1.61] | 80% | – | – | – | – | –
24 | CCOC(=O)c1nnc(N[C@@H]2CCc3ccc(C)cc32)nc1N [Example 1.74] | – | – | 100% | – | – | Herbicidal activity with respect to [%] ALOMY [8]: 80%; Herbicidal activity with respect to [%] ECHCG [3]: 100%; Herbicidal activity with respect to [%] POLCO [7]: 100%; Herbicidal activity with respect to [%] SETVI (SETVI: Setaria viridis): 100%; Herbicidal activity with respect to [%] STEME (STEME: Stellaria media [5]): 100%
25 | Cc1ccc2c(c1)[C@H](Nc1nnc(C(=O)O)c(N)n1)CC2 [Example 1.75] | – | – | – | – | – | Herbicidal activity with respect to [%] STEME (STEME: Stellaria media [5]): 100%
26 | Cc1ccc2c(c1)[C@H](Nc1nnc(-c3ccc(Cl)cc3)c(N)n1)[C@@H](C)C2 [Example 1.79, 6-(4-Chlorophenyl)-N^3-[(1R,2S)-2,6-dimethyl-2,3-dihydro-1H-inden-1-yl]-1,2,4-triazine-3,5-diamine] | 100% | 100% | – | – | – | –
27 | C=Cc1nnc(N[C@H]2c3cc(C)ccc3C[C@@H]2C)nc1N [Example 1.80] | 100% | 100% | – | – | 100% | –
28 | C=C(c1nnc(N[C@H]2c3cc(C)ccc3C[C@@H]2C)nc1N)C(F)(F)F [Example 1.81] | 100% | 100% | 100% | – | 80% | Herbicidal activity with respect to [%] ECHCG [3]: 100%; Herbicidal activity with respect to [%] POLCO [7]: 100%
29 | Nc1nc(NC2c3ccccc3CC2O)nnc1C(F)(F)F (stereo not drawn) [Example 1.82] | – | – | 100% | – | – | Herbicidal activity with respect to [%] POLCO [7]: 100%; Herbicidal activity with respect to [%] SETVI (SETVI: Setaria viridis): 100%
30 | CS(=O)(=O)c1nnc(NC2c3ccccc3CC2O)nc1N (stereo not drawn) [Example 1.87] | 100% | 90% | – | – | – | –
31 | Cc1ccc2c(c1)[C@H](Nc1nnc(C(C)O)c(N)n1)[C@@H](C)C2 (stereo partly drawn) [Example 1.103] | 100% | 100% | 100% | 90% | 90% | Herbicidal activity with respect to [%] ECHCG [3]: 100%; Herbicidal activity with respect to [%] POLCO [7]: 100%; Herbicidal activity with respect to [%] STEME (STEME: Stellaria media [5]): 80%
32 | Cc1ccc2c(c1)[C@H](Nc1nnc(C(C)(C)O)c(N)n1)[C@@H](C)C2 [Example 1.105] | 100% | 100% | 100% | 80% | 90% | Herbicidal activity with respect to [%] ECHCG [3]: 100%; Herbicidal activity with respect to [%] POLCO [7]: 100%
